The values that follow come from patent US11702409B2, “Pyrazolyl derivatives useful as anti-cancer agents” (NOVARTIS AG, priority 2019, dated 2023).

Molecules are shown by their SMILES. Some results are limits rather than exact numbers.

This test deals with KRasG12C (M1-K169, biotinylated on the N-terminus) (Homo sapiens (Human), UniProt P01116, G12C). The test is described as follows: Covalent competition assay (scintillation proximity assay, competition with radiolabeled covalent probe Compound B). The format is binding. Particulars: in vitro KRASG12C activity; 10 nM KRasG12C:GDP, 25 nM radio-ligand and 475 nM unlabelled ligand, incubated 2 hours; read-out: Covalent Competition Assay IC50. As to the method:
The cells were lysed by 4 passages through an Avestin Emulsiflex at about 20000 psi and insoluble debris removed by centrifugation and filtered through a 0.45 μm Durapore membrane (Millipore). […] The protein in the flow through was subjected to a final polishing step on a HiLoad 16/60 Superdex 200 prep grade size-exclusion column pre-equilibrated with SEC-buffer (20 mM HEPES pH 7.4, 150 mM NaCl, 5 mM MgCl2, 1 μM GDP).
A scintillation proximity assay (SPA) was used to determine the potency of the compounds. This assay measures the ability of the test compound to compete with the radiolabeled covalent probe for binding to and covalently modify KRASG12C.
A serial dilution of the compounds to be tested is mixed with a fixed concentration of the radiolabeled covalent probe before incubation with KRASG12C:GDP as described below.
The reaction was started by addition of KRasG12C (M1-K169, biotinylated on the N-terminus) to the compounds and incubated for 2 hours with continuous agitation allowing for full modification of KRasG12C with probe or test compounds. […] The assay buffer contained 20 mM Tris-HCl pH 7.5 (Invitrogen), 150 mM NaCl (Sigma Aldrich), 0.1 mM MgCl2 (Sigma Aldrich), and 0.01% Tween-20 (Sigma Aldrich).
Evaluation was carried out using assay data analysis software (such as the standard Novartis in-house Helios software application, Novartis Institutes for BioMedical Research, unpublished) using the methods described in Formenko et al., Robust Regression for high-throughput screening.
Evaluation can also be carried out using commercially available software which is designed to derive IC50 values using 4-parameter fits (e.g. GraphPad Prism, XL fit).
Background: Scintillation proximity formats need no separation of bound from free tracer.
As a reminder, the IC50 is the concentration that gives 50% inhibition. On to `C=CC(=O)N1CC2(CC(n3nc(-c4ccccc4)c(-c4c(Cl)c(C)cc5[nH]ncc45)c3C)C2)C1` (single isomer, unassigned) [Example 26a, 1-{6-[(4M)-4-(5-Chloro-6-methyl-1H-indazol-4-yl)-5-methyl-3-phenyl-1H-pyrazol-1-yl]-2-azaspiro[3.3]heptan-2-yl}prop-2-en-1-one], for which the IC50 worked out at 43 nM. Regarding `C=CC(=O)N1CC2(CC(n3nc(-c4ccccc4)c(-c4c(Cl)c(C)cc5[nH]ncc45)c3C)C2)C1` (single isomer, unassigned) [Example 26b], the IC50 was 45600 nM. The result for `C=CC(=O)N1CC2(CC(n3nc(-c4cccnc4)c(-c4c(Cl)c(C)cc5[nH]ncc45)c3C)C2)C1` (single isomer, unassigned) [Example 27a] reads 251 nM; that for `C=CC(=O)N1CC2(CC(n3nc(-c4cccnc4)c(-c4c(Cl)c(C)cc5[nH]ncc45)c3C)C2)C1` (single isomer, unassigned) [Example 27b], 19900 nM. Next, `C=CC(=O)N1CC2(CC(n3nc(-c4ccnc(C)c4)c(-c4c(Cl)ccc5[nH]ncc45)c3C)C2)C1` (single isomer, unassigned) [Example 28a]: 1280 nM; `C=CC(=O)N1CC2(CC(n3nc(-c4ccnc(C)c4)c(-c4c(Cl)ccc5[nH]ncc45)c3C)C2)C1` (single isomer, unassigned) [Example 28b]: greater than 50000 nM; `C=CC(=O)N1CC2(CC(n3nc(-c4cccc5c4cnn5C)c(-c4c(Cl)c(C)cc5[nH]ncc45)c3C)C2)C1` (single isomer, unassigned) [Example 29a]: 220 nM. Regarding `C=CC(=O)N1CC2(CC(n3nc(-c4cccc5c4cnn5C)c(-c4c(Cl)c(C)cc5[nH]ncc45)c3C)C2)C1` (single isomer, unassigned) [Example 29b], the IC50 stood at 15000 nM. For the compound `C=CC(=O)N1CC2(CC(n3nc(-c4ccc5c(c4)ncn5C)c(-c4c(Cl)c(C)cc5[nH]ncc45)c3C)C2)C1` (single isomer, unassigned) [Example 30a], the IC50 turned out to be 103 nM. Turning to `C=CC(=O)N1CC2(CC(n3nc(-c4ccc5c(c4)ncn5C)c(-c4c(Cl)c(C)cc5[nH]ncc45)c3C)C2)C1` (single isomer, unassigned) [Example 30b], the IC50 is greater than 50000 nM. The result for `C=CC(=O)N1CC2(CC(n3nc(-c4ccc5c(c4)N(C)CCO5)c(-c4c(Cl)c(C)cc5[nH]ncc45)c3C)C2)C1` (single isomer, unassigned) [Example 31a] reads 13900 nM; that for `C=CC(=O)N1CC2(CC(n3nc(-c4ccc5c(c4)N(C)CCO5)c(-c4c(Cl)c(C)cc5[nH]ncc45)c3C)C2)C1` (single isomer, unassigned) [Example 31b], 374 nM; that for `C=CC(=O)N1CC2(CC(n3nc(-c4ccc5c(c4)N(C)CC(=O)O5)c(-c4c(Cl)c(C)cc5[nH]ncc45)c3C)C2)C1` (single isomer, unassigned) [Example 32a], 871 nM. For `C=CC(=O)N1CC2(CC(n3nc(-c4ccc5c(c4)N(C)CC(=O)O5)c(-c4c(Cl)c(C)cc5[nH]ncc45)c3C)C2)C1` (single isomer, unassigned) [Example 32b], the IC50 was greater than 50000 nM.

Turning to `C=CC(=O)N1CC2(CC(n3nc(-c4ccn5ccnc5c4)c(-c4c(Cl)c(C)cc5[nH]ncc45)c3C)C2)C1` (single isomer, unassigned) [Example 33a], the IC50 is 253 nM. The result for `C=CC(=O)N1CC2(CC(n3nc(-c4ccn5ccnc5c4)c(-c4c(Cl)c(C)cc5[nH]ncc45)c3C)C2)C1` (single isomer, unassigned) [Example 33b] reads greater than 50000 nM. On to `C=CC(=O)N1CC2(CC(n3nc(-c4cnn5c4CCC5)c(-c4c(Cl)c(C)cc5[nH]ncc45)c3C)C2)C1` (single isomer, unassigned) [Example 34a], for which the IC50 stood at 827 nM. The result for `C=CC(=O)N1CC2(CC(n3nc(-c4cnn5c4CCC5)c(-c4c(Cl)c(C)cc5[nH]ncc45)c3C)C2)C1` (single isomer, unassigned) [Example 34b] reads greater than 50000 nM.
